Earlier results on 1 compound are cited in patent US9724304B2, “Nanospheres for therapeutic agent delivery” (Temple University—Of The Commonwealth System of Higher …, priority 2012, dated 2017).

For the series the following is noted: at 25° C.

In brackets after ≈: the same amount, converted by molar mass.

Usually aqueous solubility stands for the concentration that dissolves in the medium under given conditions. For `CC1=C(/C=C/C(C)=C/C=C/C(C)=C/C(=O)O)C(C)(C)CCC1` [ATRA, All-trans retinoic acid], the aqueous solubility was 29 µg/mL (≈ 96.5 µM).
